Measured values taken from patent US20160159789A1, “SUBSTITUTED PYRAZOLOPYRIDINES” (BAYER PHARMA AKTIENGESELLSCHAFT, priority 2013, published 2016).

These compounds were tested against T1, human full-length MKNK1 (Homo sapiens, UniProt Q9BUB5, T385D) (assay: MKNK1 kinase high ATP assay (TR-FRET)). Conditions: high ATP (2 mM final), 15 min preincubation with enzyme, GST-MKNK1 (T344D).
T1 construct: purchased Carna Biosciences 02-145; host or cells: insect cells (baculovirus expression system)
Assay type: biochemical
Description: MKNK1-inhibitory activity at high ATP of compounds of the present invention after their preincubation with MKNK1 was quantified employing the TR-FRET-based MKNK1 high ATP assay as described in the following paragraphs.
A recombinant fusion protein of Glutathione-S-Transferase (GST, N-terminally) and human full-length MKNK1 (amino acids 1-424 and T344D of accession number BAA 19885.1), expressed in insect cells using baculovirus expression system and purified via glutathione sepharose affinity chromatography, was purchased from Carna Biosciences (product no 02-145) and used as enzyme. As substrate for the kinase reaction the biotinylated peptide biotin-Ahx-IKKRKLTRRKSLKG (C-terminus in amide form) was used, which can be purchased e.g. from the company Biosyntan (Berlin-Buch, Germany).
For the assay 50 nL of a 100 fold concentrated solution of the test compound in DMSO was pipetted into a black low volume 384 well microtiter plate (Greiner Bio-One, Frickenhausen, Germany), 2 μL of a solution of MKNK1 in aqueous assay buffer [50 mM HEPES pH 7.5, 5 mM MgCl2, 1.0 mM dithiothreitol, 0.005% (v/v) Nonidet-P40 (Sigma)] was added and the mixture was incubated for 15 min at 22° C. to allow pre-binding of the test compounds to the enzyme before the start of the kinase reaction. Then the kinase reaction was started by the addition of 3 μL of a solution of adenosine-tri-phosphate (ATP, 3.3 mM=> final conc. in the 5 μL assay volume is 2 mM) and substrate (0.1 μM=> final conc. in the 5 μL assay volume is 0.06 μM) in assay buffer and the resulting mixture was incubated for a reaction time of 30 min at 22° C. The concentration of MKNK1 was adjusted depending of the activity of the enzyme lot and was chosen appropriate to have the assay in the linear range, typical concentrations were in the range of 0.003 μg/mL. The reaction was stopped by the addition of 5 μL of a solution of TR-FRET detection reagents (5 nM streptavidine-XL665 [Cisbio Bioassays, Codolet, France] and 1 nM anti-ribosomal protein S6 (pSer236)-antibody from Invitrogen [#44921G] and 1 nM LANCE EU-W1024 labeled ProteinG [Perkin-Elmer, product no. AD0071]) in an aqueous EDTA-solution (100 mM EDTA, 0.1% (w/v) bovine serum albumin in 50 mM HEPES pH 7.5).
The resulting mixture was incubated for 1 h at 22° C. to allow the formation of complex between the phosphorylated biotinylated peptide and the detection reagents. Subsequently the amount of phosphorylated substrate was evaluated by measurement of the resonance energy transfer from the Eu-chelate to the streptavidine-XL. Therefore, the fluorescence emissions at 620 nm and 665 nm after excitation at 350 nm were measured in a TR-FRET reader, e.g. a Rubystar (BMG Labtechnologies, Offenburg, Germany) or a Viewlux (Perkin-Elmer). The ratio of the emissions at 665 nm and at […] was taken as the measure for the amount of phosphorylated substrate. The data were normalised (enzyme reaction without inhibitor=0% inhibition, all other assay components but no enzyme=100% inhibition).

T1 sequence (Q9BUB5 1-424 isoform Q9BUB5-2 T344D): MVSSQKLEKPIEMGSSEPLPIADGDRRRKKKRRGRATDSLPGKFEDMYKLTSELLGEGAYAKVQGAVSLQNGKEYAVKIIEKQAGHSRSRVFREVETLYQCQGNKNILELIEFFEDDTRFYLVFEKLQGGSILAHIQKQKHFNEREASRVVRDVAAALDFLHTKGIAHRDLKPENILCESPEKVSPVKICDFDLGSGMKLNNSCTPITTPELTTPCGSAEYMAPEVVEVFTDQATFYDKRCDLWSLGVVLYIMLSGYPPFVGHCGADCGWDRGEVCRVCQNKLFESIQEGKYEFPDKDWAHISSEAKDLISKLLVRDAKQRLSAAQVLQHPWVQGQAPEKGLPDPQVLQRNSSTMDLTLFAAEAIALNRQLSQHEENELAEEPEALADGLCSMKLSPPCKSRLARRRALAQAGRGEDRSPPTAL

Which IC50 does the source give for `COc1nc2[nH]ncc2cc1Nc1ncnc2sc3c(c12)CC[C@H](C(=O)N1C[C@H]2C[C@@H]1CO2)C3` [Example 41] here?
Its IC50 is 0.0016 µM.

For `COc1nc2[nH]ncc2cc1Nc1ncnc2sc3c(c12)CC[C@H](C(=O)N1CCN(C)CC1)C3` [Example 42], which IC50 is on record?
The IC50 was 0.0021 µM.

With `CN(CC(C)(C)O)C(=O)[C@H]1CCc2c(sc3ncnc(Nc4cc5cn[nH]c5cn4)c23)C1` [Example 47, (7S)—N-(2-Hydroxy-2-methylpropyl)-N-methyl-4-(1H-pyrazolo[3,4-c]pyridin-5-ylamino)-5,6,7,8-tetrahydro[1]benzothieno[2,3-d]pyrimidine-7-carboxamide] as the compound, how does the IC50 read?
The IC50 was 0.0111 µM.

How did the IC50 turn out when `CN(C)CCCN(C)C(=O)c1[nH]c2ncnc(Nc3cc4cn[nH]c4nc3O)c2c1Br` [Example 132, 5-Bromo-N-[3-(dimethylamino)propyl]-4-[(6-hydroxy-1H-pyrazolo[3,4-b]pyridin-5-yl)amino]-N-methyl-7H-pyrrolo[2,3-d]pyrimidine-6-carboxamide] was run?
Its IC50 is 0.0234 µM.

Which IC50 does the source give for `CN(C)C(=O)CNC(=O)c1cc2c(Nc3cc4cn[nH]c4cn3)ncnc2[nH]1` [Example 76, N-[2-(Dimethylamino)-2-oxoethyl]-4-(1H-pyrazolo[3,4-c]pyridin-5-ylamino)-7H-pyrrolo[2,3-d]pyrimidine-6-carboxamide] here?
Its IC50 is 0.0715 µM.

`CCCN(C)C(=O)[C@H]1CCc2c(sc3ncnc(Nc4cc5cn[nH]c5cn4)c23)C1` [Example 81, (7S)—N-Methyl-N-propyl-4-(1H-pyrazolo[3,4-c]pyridin-5-ylamino)-5,6,7,8-tetrahydro[1]benzothieno[2,3-d]pyrimidine-7-carboxamide] was tested. Which IC50 did it give?
The IC50 was 0.0161 µM.

`C[C@@H]1COCCN1C(=O)[C@H]1CCc2c(sc3ncnc(Nc4cnc5[nH]ncc5c4)c23)C1` [Example 103, [(3R)-3-Methylmorpholin-4-yl][(7S)-4-(1H-pyrazolo[3,4-b]pyridin-5-ylamino)-5,6,7,8-tetrahydro[1]benzothieno[2,3-d]pyrimidin-7-yl]methanone] was tested. Which IC50 did it give?
The IC50 was 0.0358 µM.

For `CCN(C)C(=O)[C@H]1CCc2c(sc3ncnc(Nc4cc5cn[nH]c5cn4)c23)C1` [Example 58, (7S)—N-Ethyl-N-methyl-4-(1H-pyrazolo[3,4-c]pyridin-5-ylamino)-5,6,7,8-tetrahydro[1]benzothieno[2,3-d]pyrimidine-7-carboxamide], which IC50 is on record?
Its IC50 is 0.0173 µM.

`CC(C)NC(=O)C1CCc2[nH]c3ncnc(Nc4cnc5[nH]ncc5c4)c3c2C1` (racemic) [Example 29, (RS)—N-(Propan-2-yl)-4-(1H-pyrazolo[3,4-b]pyridin-5-ylamino)-6,7,8,9-tetrahydro-5H-pyrimido[4,5-b]indole-6-carboxamide] was tested. Which IC50 did it give?
The IC50 was 0.0247 µM.

With `CN(CCC(F)(F)F)C(=O)[C@H]1CCc2c(sc3ncnc(Nc4cc5cn[nH]c5cn4)c23)C1` [Example 48, (7S)—N-Methyl-4-(1H-pyrazolo[3,4-c]pyridin-5-ylamino)-N-(3,3,3-trifluoropropyl)-5,6,7,8-tetrahydro[1]benzothieno[2,3-d]pyrimidine-7-carboxamide] as the compound, how does the IC50 read?
The IC50 was 0.0062 µM.

`COc1nc2[nH]ncc2cc1Nc1ncnc2sc3c(c12)CC[C@H](C(=O)N1CCC1)C3` [Example 35, Azetidin-1-yl{(7S)-4-[(6-methoxy-1H-pyrazolo[3,4-b]pyridin-5-yl)amino]-5,6,7,8-tetrahydro[1]benzothieno[2,3-d]pyrimidin-7-yl}methanone] was tested. Which IC50 did it give?
Its IC50 is 0.0022 µM.

Which IC50 does the source give for `O=C([C@H]1CCc2c(sc3ncnc(Nc4cnc5[nH]ncc5c4)c23)C1)N1CC2(COC2)C1` [Example 98, 2-Oxa-6-azaspiro[3.3]hept-6-yl[(7S)-4-(1H-pyrazolo[3,4-b]pyridin-5-ylamino)-5,6,7,8-tetrahydro[1]benzothieno[2,3-d]pyrimidin-7-yl]methanone] here?
The IC50 was 0.0158 µM.

Which IC50 does the source give for `CCN(C(=O)[C@H]1CCc2c(sc3ncnc(Nc4cc5cn[nH]c5cn4)c23)C1)C(C)C` [Example 46, (7S)—N-Ethyl-N-(propan-2-yl)-4-(1H-pyrazolo[3,4-c]pyridin-5-ylamino)-5,6,7,8-tetrahydro[1]benzothieno[2,3-d]pyrimidine-7-carboxamide] here?
Its IC50 is 0.0049 µM.

With `COCCN(C)C(=O)[C@H]1CCc2c(sc3ncnc(Nc4cc5cn[nH]c5cn4)c23)C1` [Example 57, (7S)—N-(2-Methoxyethyl)-N-methyl-4-(1H-pyrazolo[3,4-c]pyridin-5-ylamino)-5,6,7,8-tetrahydro[1]benzothieno[2,3-d]pyrimidine-7-carboxamide] as the compound, how does the IC50 read?
The IC50 was 0.015 µM.

With `CCc1[nH]c2ncnc(Nc3cnc4[nH]ncc4c3)c2c1C` [Example 7, N-(6-Ethyl-5-methyl-7H-pyrrolo[2,3-d]pyrimidin-4-yl)-1H-pyrazolo[3,4-b]pyridin-5-amine] as the compound, how does the IC50 read?
The IC50 was 0.0289 µM.

`CC(C)N(C)C(=O)[C@H]1CCc2c(sc3ncnc(Nc4cc5cn[nH]c5nc4O)c23)C1` [Example 114, (7S)-4-[(6-Hydroxy-1H-pyrazolo[3,4-b]pyridin-5-yl)amino]-N-methyl-N-(propan-2-yl)-5,6,7,8-tetrahydro[1]benzothieno[2,3-d]pyrimidine-7-carboxamide] was tested. Which IC50 did it give?
Its IC50 is 0.0046 µM.

How did the IC50 turn out when `c1ccc(CCc2nc3c(Nc4cc5cn[nH]c5cn4)ncnc3s2)cc1` [Example 79, 2-(2-Phenylethyl)-N-(1H-pyrazolo[3,4-c]pyridin-5-yl)[1,3]thiazolo[5,4-d]pyrimidin-7-amine] was run?
The IC50 was 1.35 µM.

Which IC50 does the source give for `c1nc(Nc2cc3cn[nH]c3cn2)c2cc[nH]c2n1` [Example 2, N-(7H-Pyrrolo[2,3-d]pyrimidin-4-yl)-1H-pyrazolo[3,4-c]pyridin-5-amine] here?
Its IC50 is 0.0238 µM.

Which IC50 does the source give for `N#CC1CN(C(=O)[C@H]2CCc3c(sc4ncnc(Nc5cc6cn[nH]c6cn5)c34)C2)C1` [Example 82, 1-{[(7S)-4-(1H-Pyrazolo[3,4-c]pyridin-5-ylamino)-5,6,7,8-tetrahydro[1]benzothieno[2,3-d]pyrimidin-7-yl]carbonyl}azetidine-3-carbonitrile] here?
The IC50 was 0.0032 µM.

How did the IC50 turn out when `COc1nc2[nH]ncc2cc1Nc1ncnc2sc3c(c12)CC[C@H](C(=O)N1CCOC[C@@H]1C)C3` [Example 45] was run?
Its IC50 is 0.0007 µM.

With `CCCCN(C)C(=O)[C@H]1CCc2c(sc3ncnc(Nc4cc5cn[nH]c5nc4OC)c23)C1` [Example 51, (7S)—N—Butyl-4-[(6-methoxy-1H-pyrazolo[3,4-b]pyridin-5-yl)amino]-N-methyl-5,6,7,8-tetrahydro[1]benzothieno[2,3-d]pyrimidine-7-carboxamide] as the compound, how does the IC50 read?
Its IC50 is 0.0005 µM.

Which IC50 does the source give for `CN1CCN(C(=O)C2CCc3[nH]c4ncnc(Nc5cnc6[nH]ncc6c5)c4c3C2)CC1` (racemic) [Example 32, (RS)-(4-Methylpiperazin-1-yl)[4-(1H-pyrazolo[3,4-b]pyridin-5-ylamino)-6,7,8,9-tetrahydro-5H-pyrimido[4,5-b]indol-6-yl]methanone] here?
Its IC50 is 0.049 µM.

How did the IC50 turn out when `CN(C)C1CCN(C(=O)[C@H]2CCc3c(sc4ncnc(Nc5cc6cn[nH]c6nc5O)c34)C2)CC1` [Example 117, [4-(Dimethylamino)piperidin-1-yl]{(7S)-4-[(6-hydroxy-1H-pyrazolo[3,4-b]pyridin-5-yl)amino]-5,6,7,8-tetrahydro[1]benzothieno[2,3-d]pyrimidin-7-yl}methanone] was run?
The IC50 was 0.0014 µM.

With `CN(C)C(=O)CCN(C)C(=O)c1nc2c(Nc3cnc4[nH]ncc4c3)ncnc2s1` [Example 129, N-[3-(Dimethylamino)-3-oxopropyl]-N-methyl-7-(1H-pyrazolo[3,4-b]pyridin-5-ylamino)[1,3]thiazolo[5,4-d]pyrimidine-2-carboxamide] as the compound, how does the IC50 read?
The IC50 was 4.29 µM.
